{
  "source": "patent US5116815A",
  "about": "“PF 1022 substance, method of treating helminthic parasitic infection and anthelmintic composition” (Meiji Seika Kaisha Ltd., priority 1989, dated 1992)",
  "key": {"[1]": {"system": "feline hookworms (Ancylostoma tubaeforme)", "experiment": "Anthelmintic activity against cat hookworms", "type": "in vivo", "conditions": "cats", "experimental": "The PF 1022 substance was evaluated for its anthelmintic effect on feline hookworms (Ancylostoma tubaeforme) by orally administering the substance once to 12 cats found to be infected with said worms by scatoscopy.\nThe infected cats were divided into three groups of 4 animals and respectively given 0.2 mg/kg, 1 mg/kg and 5 mg/kg of the substance admixed as such with a small portion of the ordinary feed. The observation items were the number of worms eliminated during 7 days following administration and the number of remaining worms found upon autopsy 7 days after administration."}, "[2]": {"system": "roundworms (Parascaris equorum)", "experiment": "Anthelmintic effect on equine roundworms", "type": "in vivo", "conditions": "horse, oral 5 mg/kg Day 0 and 2.5 mg/kg Day 1", "experimental": "The PF 1022 substance was evaluated for its anthelmintic effect in a horse found by scatoscopy to be infected with roundworms (Parascaris equorum) and strongyles (Strongylus spp.) by orally administering the substance thereto.\nThe PF 1022 substance was suspended in water and administered with a stomach catheter at 5 mg/kg on the first day and at 2.5 mg/kg on the second day. For both the roundworms and strongyles, parasite eggs in each gram of feces (EPG) as well as parasites eliminated were counted daily for one week following the first administration. For strongyles, the number of worms in 100 g of feces was determined."}, "[3]": {"system": "feline roundworms (Toxocara cati)", "experiment": "Anthelmintic activity against cat large intestinal roundworms", "type": "in vivo", "conditions": "cats", "experimental": "The PF 1022 substance was evaluated for its anthelmintic effect on feline roundworms (Toxocara cati) by orally administering the substance once to 12 cats found to be infected with the roundworms by scatoscopy.\nThe infected cats were used in three groups of 4 animals and given 0.2 mg/kg, 1 mg/kg and 5 mg/kg of the substance, respectively, admixed as such with a small portion of ordinary feed. The observation items were the number of roundworms eliminated during the 7 day observation period following administration and the number of remaining roundworms as found upon autopsy performed 7 days after administration."}, "[4]": {"system": "bovine twisted stomach worms (Haemonchus contortus)", "experiment": "In vitro test tube motility test on bovine twisted stomach worms", "conditions": "physiological salt solution, 39-40 C", "experimental": "The PF 1022 substance was evaluated for its anthelmintic activity by adding it to test tubes in which bovine twisted stomach worms (Haemonchus contortus) isolated from the bovine fourth stomach were swimming.\nA physiological salt solution was distributed into 4 test tubes and warmed to 39°-40° C. Three to five twisted stomachworms collected from the bovine fourth stomach were put into the medium in each test tube and allowed to swim therein. An appropriate amount of the PF 1022 substance was dissolved in a small amount of dimethyl sulfoxide and the solution was added dropwise to the medium and, after stirring for admixing, the behavior of each worm was observed. The amount of the PF 1022 substance was adjusted so that the final concentrations in the culture medium in three tubes amounted to 2 ppm, 8 ppm and 40 ppm, respectively. Dimethyl sulfoxide alone was added dropwise to the remaining test tube, which served as a control."}, "[5]": {"system": "fourth stomachworms (Ostertaqia circumcincta)", "experiment": "Sheep digestive tract nematodes, worms remaining in the fourth stomach", "type": "in vivo", "conditions": "for number of worms remaining in the fourth stomach at autopsy: autopsy 7 days after administration, mean of 6 animals", "experimental": "The PF 1022 substance was evaluated for its anthelmintic effect in sheep mixedly infected with fourth stomachworms (Ostertaqia circumcincta) and small intestinal hairworms (Trichostrongylus colubriformis) by administering it orally to 24 sheep artificially infected with said two worm species.\nThe infected sheep were divided into 4 groups of 6 animals, which were respectively given 1 mg/kg, 5 mg/kg, 10 mg/kg and 0 mg/kg (control) of the substance suspended in 0.5% CMC, via a stomach catheter. The observation items were the number of parasite eggs per gram of feces (EPG) before administration, the EPG 7 days after administration, and the number of worms remaining in the fourth stomach and that of worms remaining in the intestinal tract as found upon autopsy 7 days after administration.\nEach numerical value given is the mean of 6 animals."}, "mammalian cell": {"system": "mammalian cell", "experiment": "Mammalian cell chromosomal aberration test", "type": "cell-based"}, "[6]": {"system": "large intestinal roundworms (Ascaridia galli)", "experiment": "Chicken large intestinal roundworms, administration in feed for 3 weeks", "type": "in vivo", "conditions": "chickens; for Number of eggs before starting administration: baseline", "experimental": "The PF 1022 substance was evaluated for its anthelmintic effect on 9 chickens found, by scatoscopy, to be infected with large intestinal roundworms (Ascaridia galli) by administering it in admixture with the feed.\nThe chickens were divided into three groups of 3 animals, which served as the 1 ppm, 5 ppm and 10 ppm groups. The feed containing the PF 1022 substance in each concentration mentioned above was given to the chickens for 3 weeks. Parasite eggs in feces were counted at one-week intervals in terms of EPG and worms eliminated were counted daily. At the end of the administration period, the chickens were sacrificed and autopsied and the worms remaining therein were counted."}, "[7]": {"conditions": "single oral dose 1 mg/kg, 1 mg/kg"}, "[8]": {"conditions": "single oral dose 5 mg/kg, autopsy 7 days"}},
  "note": "Values joined by “and” are separate entries in the source; they are usually repeats but may differ in a detail not shown here. Equal values may be shown once.",
  "data": [
    {"molecule": "CC(C)C[C@H]1C(=O)O[C@H](Cc2ccccc2)C(=O)N(C)[C@@H](CC(C)C)C(=O)O[C@H](C)C(=O)N(C)[C@@H](CC(C)C)C(=O)O[C@H](Cc2ccccc2)C(=O)N(C)[C@@H](CC(C)C)C(=O)O[C@H](C)C(=O)N1C", "note": "[PF 1022 substance]", "values": [
      {"measurement": "% Elimination", "setting": "[1]; [7]", "value": "62.5% and 100% and 87.5% and 98.2%"},
      {"measurement": "% Elimination", "setting": "[1]; single oral dose 5 mg/kg", "value": 100, "unit": "%"},
      {"measurement": "Number of remaining worms", "setting": "[1]; [8]", "value": 0},
      {"measurement": "EPG", "setting": "[2]; Day 0", "value": 77},
      {"measurement": "Number of worms eliminated", "setting": "[2]; Day 0", "value": 0},
      {"measurement": "EPG", "setting": "[2]; Day 1", "value": 52},
      {"measurement": "Number of worms eliminated", "setting": "[2]; Day 1", "value": 22},
      {"measurement": "EPG", "setting": "[2]; Day 2", "value": 0.4},
      {"measurement": "Number of worms eliminated", "setting": "[2]; Day 2", "value": 17},
      {"measurement": "EPG", "setting": "[2]; Day 3", "value": 0.2},
      {"measurement": "Number of worms eliminated", "setting": "[2]; Day 3", "value": 0},
      {"measurement": "EPG", "setting": "[2]; Day 4", "value": 0},
      {"measurement": "Number of worms eliminated", "setting": "[2]; Day 4", "value": 0},
      {"measurement": "EPG", "setting": "[2]; Day 5", "value": 0},
      {"measurement": "Number of worms eliminated", "setting": "[2]; Day 5", "value": 0},
      {"measurement": "EPG", "setting": "[2]; Day 6", "value": 0.2},
      {"measurement": "Number of worms eliminated", "setting": "[2]; Day 6", "value": 0},
      {"measurement": "EPG", "setting": "[2]; Day 7", "value": 0},
      {"measurement": "Number of worms eliminated", "setting": "[2]; Day 7", "value": 0},
      {"measurement": "% Elimination", "setting": "[3]; single oral dose 0.2 mg/kg, 0.2 mg/kg", "value": "100% and 50.0%"},
      {"measurement": "% Elimination", "setting": "[3]; [7]", "value": "100% and 80.0%"},
      {"measurement": "% Elimination", "setting": "[3]; single oral dose 5 mg/kg", "value": 100, "unit": "%"},
      {"measurement": "Number of remaining worms", "setting": "[3]; [8]", "value": 0},
      {"measurement": "time until the worms stopped moving", "setting": "[4]; 2 ppm", "value": 25, "unit": "min"},
      {"measurement": "time until the worms stopped moving", "setting": "[4]; 8 ppm", "value": 15, "unit": "min"},
      {"measurement": "time until the worms stopped moving", "setting": "[4]; 40 ppm", "value": 10, "unit": "min"},
      {"measurement": "number of worms remaining in the fourth stomach at autopsy", "setting": "[5]; oral 1 mg/kg", "value": 4967},
      {"measurement": "number of worms remaining in the fourth stomach at autopsy", "setting": "[5]; oral 5 mg/kg", "value": 4717},
      {"measurement": "number of worms remaining in the fourth stomach relative to the control infected group", "setting": "[5]; oral 10 mg/kg", "value": "about half"},
      {"measurement": "number of worms remaining in the fourth stomach at autopsy", "setting": "[5]; oral 10 mg/kg", "value": 2463},
      {"measurement": "mammalian cell chromosomal aberration test result", "setting": "mammalian cell", "value": "negative"},
      {"measurement": "Number of worms remaining", "setting": "[6]; 1 ppm in feed for 3 weeks, autopsy", "value": "49 and 96 and 83"},
      {"measurement": "Number of eggs before starting administration", "setting": "[6]; 1 ppm in feed", "value": "> 300 and 172"},
      {"measurement": "% Elimination", "setting": "[6]; 5 ppm in feed for 3 weeks", "value": "86.1% and 56.9% and 62.5%"},
      {"measurement": "Number of eggs before starting administration", "setting": "[6]; 5 ppm in feed", "value": "300 and > 300 and 158"},
      {"measurement": "Number of worms eliminated", "setting": "[6]; 10 ppm in feed for 3 weeks", "value": "44 and 55 and 45"},
      {"measurement": "Number of eggs before starting administration", "setting": "[6]; 10 ppm in feed", "value": "300 and > 300 and 176"}
    ]}
  ]
}
